≈ marks a conversion by molar mass, not a printed value.

Holding throughout (type): functional
Details in all cases: time 16-20 hrs

The subject of assay [1] is Escherichia coli. The experiment in a line: Antibacterial activity against Escherichia coli ATCC 25922 incubated for 16 to 20 hrs by broth microdilution method.
The test system of assay [2] is Klebsiella pneumoniae. The assay is described as follows: Antibacterial activity against Klebsiella pneumoniae ATCC 13883 incubated for 16 to 20 hrs by broth microdilution method.
Assay [3] deals with Staphylococcus aureus. The experiment in a line: Antibacterial activity against Staphylococcus aureus ATCC 25923 incubated for 16 to 20 hrs by broth microdilution method.
The test system of assay [4] is Cronobacter sakazakii. The assay is described as follows: Antibacterial activity against Cronobacter sakazakii ATCC 29544 incubated for 16 to 20 hrs by broth microdilution method.

Regarding `CC[C@H]1OC(=O)C[C@@H](O)[C@H](C)[C@@H](O[C@@H]2O[C@H](C)[C@@H](O)[C@H](N(C)C)[C@H]2O)[C@@H](CCN(Cc2ccc(Br)cc2)Cc2cn(-c3cnc4ccccc4c3)nn2)C[C@@H](C)C(=O)/C=C/C(C)=C/[C@@H]1CI`, the MIC in assay [1] was determined as 32 µg/mL (≈ 29.5 µM); in assay [2] it was 32 µg/mL (≈ 29.5 µM); in assay [3], 4 µg/mL (≈ 3.68 µM); in assay [4], 16 µg/mL (≈ 14.7 µM).

As to `CC[C@H]1OC(=O)C[C@@H](O)[C@H](C)[C@@H](O[C@@H]2O[C@H](C)[C@@H](O)[C@H](N(C)C)[C@H]2O)[C@@H](CCN(Cc2ccc(N(C)C)cc2)Cc2cn(-c3cnc4ccccc4c3)nn2)C[C@@H](C)C(=O)/C=C/C(C)=C/[C@@H]1CN1CCCCCCC1`, the MIC was 8 µg/mL (≈ 7.73 µM) in assay [1], 16 µg/mL (≈ 15.5 µM) in assay [2], 0.5 µg/mL (≈ 0.483 µM) in assay [3] and 32 µg/mL (≈ 30.9 µM) in assay [4].

Turning to `CC[C@H]1OC(=O)C[C@@H](O)[C@H](C)[C@@H](O[C@@H]2O[C@H](C)[C@@H](O)[C@H](N(C)C)[C@H]2O)[C@@H](CCN(Cc2ccc(OC)cc2)Cc2cn(-c3cnc4ccccc4c3)nn2)C[C@@H](C)C(=O)/C=C/C(C)=C/[C@@H]1CN(CC)CC`, the MIC in assay [1] was 4 µg/mL (≈ 4.07 µM); in assay [2] it was 8 µg/mL (≈ 8.14 µM); in assay [3] it was 0.5 µg/mL (≈ 0.509 µM); in assay [4], 16 µg/mL (≈ 16.3 µM).

Take `CC[C@H]1OC(=O)C[C@@H](O)[C@H](C)[C@@H](O[C@@H]2O[C@H](C)[C@@H](O)[C@H](N(C)C)[C@H]2O)[C@@H](CCN(Cc2ccc(C(F)(F)F)cc2)Cc2cn(-c3cnc4ccccc4c3)nn2)C[C@@H](C)C(=O)/C=C/C(C)=C/[C@@H]1CN(CC)CC`: the MIC was determined as 4 µg/mL (≈ 3.92 µM) in assay [1], 8 µg/mL (≈ 7.84 µM) in assay [2], 1 µg/mL (≈ 0.98 µM) in assay [3] and 16 µg/mL (≈ 15.7 µM) in assay [4].

For the compound `CC[C@H]1OC(=O)C[C@@H](O)[C@H](C)[C@@H](O[C@@H]2O[C@H](C)[C@@H](O)[C@H](N(C)C)[C@H]2O)[C@@H](CCN(Cc2ccc(C(F)(F)F)cc2)Cc2cn(-c3cnc4ccccc4c3)nn2)C[C@@H](C)C(=O)/C=C/C(C)=C/[C@@H]1CO`, the MIC was 8 µg/mL (≈ 8.29 µM) in assay [1], 32 µg/mL (≈ 33.2 µM) in assay [2], 0.25 µg/mL (≈ 0.259 µM) in assay [3] and 16 µg/mL (≈ 16.6 µM) in assay [4].

On to `CC[C@H]1OC(=O)C[C@@H](O)[C@H](C)[C@@H](O[C@@H]2O[C@H](C)[C@@H](O)[C@H](N(C)C)[C@H]2O)[C@@H](CCN(Cc2cn(-c3cnc4ccccc4c3)nn2)Cc2ccco2)C[C@@H](C)C(=O)/C=C/C(C)=C/[C@@H]1CN1CC(C)CC(C)C1` (stereo partly specified), for which the minimal inhibitory concentration (MIC) in assay [1] is 16 µg/mL (≈ 16.3 µM); in assay [2], 16 µg/mL (≈ 16.3 µM); in assay [3], 2 µg/mL (≈ 2.04 µM); in assay [4], 16 µg/mL (≈ 16.3 µM).

Consider `CC[C@H]1OC(=O)C[C@@H](O)[C@H](C)[C@@H](O[C@@H]2O[C@H](C)[C@@H](O)[C@H](N(C)C)[C@H]2O)[C@@H](CCN(Cc2ccc(C)cc2)Cc2cn(-c3cnc4ccccc4c3)nn2)C[C@@H](C)C(=O)/C=C/C(C)=C/[C@@H]1CO`, for which the MIC in assay [1] amounted to 16 µg/mL (≈ 17.6 µM); in assay [2] it was 16 µg/mL (≈ 17.6 µM); in assay [3] it was 0.5 µg/mL (≈ 0.549 µM); in assay [4], 16 µg/mL (≈ 17.6 µM).

Take `CC[C@H]1OC(=O)C[C@@H](O)[C@H](C)[C@@H](O[C@@H]2O[C@H](C)[C@@H](O)[C@H](N(C)C)[C@H]2O)[C@@H](CCN(Cc2cn(-c3cnc4ccccc4c3)nn2)Cc2nccs2)C[C@@H](C)C(=O)/C=C/C(C)=C/[C@@H]1CO`: the MIC in assay [1] turned out to be 32 µg/mL (≈ 35.4 µM); in assay [2], 32 µg/mL (≈ 35.4 µM); in assay [3] it was 0.5 µg/mL (≈ 0.553 µM); in assay [4], 32 µg/mL (≈ 35.4 µM).

`CCc1ccc(CN(CC[C@H]2C[C@@H](C)C(=O)/C=C/C(C)=C/[C@H](CO)[C@@H](CC)OC(=O)C[C@@H](O)[C@H](C)[C@H]2O[C@@H]2O[C@H](C)[C@@H](O)[C@H](N(C)C)[C@H]2O)Cc2cn(-c3cnc4ccccc4c3)nn2)cc1`: the MIC in assay [1] is 32 µg/mL (≈ 34.6 µM); in assay [2] it was 16 µg/mL (≈ 17.3 µM); in assay [3], 0.5 µg/mL (≈ 0.54 µM); in assay [4], 16 µg/mL (≈ 17.3 µM).
